This note sets out measurements from publication PMC10812557, “Progressive Design of a Ranatuerin-2 Peptide from Amolops wuyiensis: Enhancement of Bioactivity and In Vivo Efficacy” (Antibiotics, 2023).

For test [1], the system named is E. faecium (NTCC 12697). The experiment in a line: microbe, parasite or virus in culture. In kind it is cell-based. From the text: (§1) The MIC and MBC assays were used to assess the inhibitory activities of all 5 analogues of R2AW on the growth of planktonic microorganisms. The MIC is the lowest concentration that prevents the viable growth of bacteria. The MBC is the lowest concentration that results in bacterial death. Six microorganisms were used to detect the antimicrobial activity of peptides, including Gram-positive bacteria S. aureus (NCTC 10788), MRSA (NCTC 12493), Enterococcus faecalis (E. faecalis) (NCTC 12697), Gram-negative bacteria E. coli […], Klebsiella pneumoniae (K. pneumoniae) (ATCC 43816), and Pseudomonas aeruginosa (P. aeruginosa) (ATCC 9027). According to the assay described previously, the microorganisms were inoculated at 37 °C overnight and diluted to 5 × 10^5 CFU/mL after reaching the logarithmic growth period. The peptide stock solution at the concentration of 512 × 10^2 μM was prepared and diluted to 100 μM by a 2-fold dilution. One μL of each concentration of peptide solution was incubated with 99 μL of bacterial subculture in the 96-well plate for 18 h at 37 °C. The absorbance was determined at a wavelength of 550 nm using a Synergy HT plate reader (Bio Tek, Washington, DC, USA). […] As for those wells that were clearly visible, 20 μL of the solution was dropped onto the Mueller Hinton agar (MHA) dish and then incubated at 37 °C overnight. The lowest concentration with no colony growth was determined as the MBC.

The subject of test [2] is MRSA (NCTC 12493). In words: microbe, parasite or virus in culture. The note with it: MRSA (NCTC 12493). The format is cell-based.
From the text: as §1

Test [3] deals with S. aureus (NCTC 10788). The experiment in a line: microbe, parasite or virus in culture. The format is cell-based.
From the text: as §1

In test [4] the test system is E. coli (ATCC 8739). The format is cell-based.
From the text: as §1

The test system of test [5] is K. pneumoniae (ATCC 43816). The format is cell-based.
From the text: as §1

The test system of test [6] is P. aeruginosa (ATCC 9027). The format is cell-based.
From the text: as §1

The test system of test [7] is S. aureus (NCTC 10788). The format is cell-based, Staphylococcus aureus. As for the experimental part:
(§2) As a previous study described in detail, the ability of R2AW and its analogues to inhibit and eradicate the formation of biofilm was investigated. The MBIC is the lowest concentration which inhibits the formation of biofilm. The MBEC is the minimum concentration that eradicates biofilm. Six bacterial strains were used, as described above. Briefly, the bacteria were cultured and then diluted to 5 × 10^5 CFU/mL. In MBIC assays, 1 μL of each concentration of R2AW and its analogues (ranging from 512 × 10^2 μM to 100 μM) was mixed with 99 μL of diluted bacterial suspension in a 96-well plate for 16-20 h at 37 °C. As for MBEC assays, 100 μL of cultured bacteria were seeded in a 96-well plate and incubated on the shaking incubator at 37 °C overnight for biofilm formation. Subsequently, each well was rinsed twice with 100 μL sterile PBS to remove planktonic cells, and then replaced with 100 μL of each concentration (ranging from 512 μM to 1 μM) of peptides. After 24 h incubation, the biofilm was washed twice with 100 μL of PBS and fixed with methanol. Next, the same volume of 0.1% crystal violet solution (Sigma-Aldrich, Gillingham, UK) was added to each well to stain the biofilm. After that, 100 μL of 30% of acetic acid (Sigma-Aldrich, Gillingham, UK) was transferred to each well for dissolution. The solutions were transferred into a new 96-well plate and the absorbances of wells was monitored using a Synergy HT plate reader set to 595 nm.

The subject of test [8] is E. coli (ATCC 8739). In kind it is cell-based, Escherichia coli. The protocol: as §2
Test [9] concerns K. pneumoniae (ATCC 43816). In kind it is cell-based, Klebsiella pneumoniae. The protocol:
as §2

Test [10] has as its system E. faecium (NTCC 12697). In kind it is cell-based. As for the experimental part: as §2
Test [11] concerns P. aeruginosa (ATCC 9027). The format is cell-based, Pseudomonas aeruginosa. The protocol:
as §2

In a further test the test system is H838. The format is cell-based, human. The note with it: 24 h. As for the experimental part: (§3) Five human cancer cell lines of non-small-cell lung cancer H838, human prostate carcinoma PC-3, human neuronal glioblastoma U251MG, human breast cancer cell MCF-7, and colorectal carcinoma HCT116 were used to detect the antiproliferative abilities of R2AW and its five analogues. According to the procedures in a previous article, cells (8000 cells/well) were seeded into the 96-well tissue culture plates and incubated at 37 °C with 5% CO2 overnight. The solutions of R2AW and its analogues at concentrations of 10^−4 M to 10^−9 M were prepared in the serum-free medium. Next, cells in each well were treated with 100 μL of each peptide solution for 24 h. Subsequently, 10 μL of 5 mg/mL MTT (3-(4, 5-Dimethylthiazol-2-yl-)-2, 5-Diphehyltetrazolium Bromide) was added to each well followed by 37 °C incubation for 2 h. After that, the liquid in each well was removed and 100 μL of DMSO was added to dissolve the purple formazan. The plate was placed on a shaking incubator for 10 min, and the absorbance was detected at 550 nm using a Synergy HT plate reader (Biotech, Minneapolis, MN, USA).

The test system of another test is HCT116. In kind it is cell-based, human. The following applies: 24 h. As for the experimental part: as §3
The subject of the next test is MCF-7. In kind it is cell-based, human. The following applies: 24 h. The protocol:
as §3

A further test has as its system PC-3. The format is cell-based, human. The note with it: 24 h. As for the experimental part:
as §3

A further test has as its system U251MG. In kind it is cell-based, human. The following applies: 24 h. As for the experimental part:
as §3

In test [12] the test system is MRSA (NCTC 12493). The format is cell-based, methicillin-resistant Staphylococcus aureus. The note with it: NCTC 12493. As for the experimental part: as §2

Structures are written as SMILES. pIC50: −log10 of the molar value. Read-outs that look alike come from different tables or passages of the source. Peptide text beside a SMILES is read from it. A value given as a limit tells only on which side of the number the result lay.

On to `CC[C@H](C)[C@H](NC(=O)CN)C(=O)NCC(=O)N[C@@H](C)C(=O)N[C@H](C(=O)N[C@@H](CC(C)C)C(=O)N[C@@H](CCCCN)C(=O)N[C@H](C(=O)N[C@@H](CC(C)C)C(=O)N[C@H](C(=O)N[C@H](C(=O)NCC(=O)N[C@@H](CC(C)C)C(=O)N1CCC[C@H]1C(=O)N[C@@H](C)C(=O)N[C@@H](CC(C)C)C(=O)N[C@H](C(=O)N[C@@H](CO)C(=O)N[C@@H](Cc1c[nH]c2ccccc12)C(=O)N[C@H](C(=O)N[C@@H](CCCCN)C(=O)N[C@@H](CCCNC(=N)N)C(=O)N[C@@H](CCCCN)C(=O)N[C@@H](CCCNC(=N)N)C(=O)N[C@@H](CCC(N)=O)C(=O)N[C@@H](CCC(N)=O)C(N)=O)[C@@H](C)CC)[C@@H](C)CC)[C@@H](C)O)[C@@H](C)O)C(C)C)C(C)C` [Melittin, reference compound], for which the MBC worked out at 2 µM with E. faecium (NTCC 12697) [1] (E. faecium (NTCC 12697)); 2 µM in the test with MRSA (NCTC 12493) [2]; 2 µM with S. aureus (NCTC 10788) [3] (S. aureus (NCTC 10788)); 4 µM with E. coli (ATCC 8739) [4] (E. coli (ATCC 8739)); 32 µM in [5] (K. pneumoniae (ATCC 43816)); 32 µM in test [6] (P. aeruginosa (ATCC 9027)). In addition, the MIC in the test on E. faecium (NTCC 12697) [1] (E. faecium (NTCC 12697)) is 2 µM; in test [5] (K. pneumoniae (ATCC 43816)), 32 µM.

One may read the pIC50 as the IC50 on a negative log10 scale, so that one unit is a factor of ten. `CSCC[C@H](NC(=O)[C@H](Cc1ccccc1)NC(=O)CN)C(=O)N[C@@H](CC(=O)O)C(=O)N[C@H](C(=O)N[C@@H](C)C(=O)N[C@@H](CCCCN)C(=O)N[C@@H](CC(N)=O)C(=O)N[C@H](C(=O)N[C@@H](C)C(=O)N[C@@H](CCCCN)C(=O)N[C@@H](CC(N)=O)C(=O)N[C@H](C(=O)N[C@@H](C)C(=O)N[C@@H](C)C(=O)N[C@H](C(=O)N[C@@H](CC(C)C)C(=O)N[C@@H](CC(C)C)C(=O)N[C@@H](CC(=O)O)C(=O)N[C@@H](CCCCN)C(=O)N[C@@H](CC(C)C)C(=O)N[C@@H](CCCCN)C(N)=O)[C@@H](C)O)C(C)C)C(C)C)[C@@H](C)O` [R2AW(1-22)-NH2] (H-GFMDTAKNVAKNVAATLLDKLK-NH2): the MBC with E. faecium (NTCC 12697) [1] (NTCC 12697, 18 h) is 601 µg/mL; with MRSA (NCTC 12493) [2], 601 µg/mL; with S. aureus (NCTC 10788) [3] (NCTC 10788, 18 h), 150 µg/mL; with E. coli (ATCC 8739) [4] (ATCC 8739, 18 h), 301 µg/mL; in [5] (ATCC 43816, 18 h), 601 µg/mL; in test [6] (ATCC 9027, 18 h), over 1202 µg/mL. Besides, the MIC came out at 601 µg/mL with E. faecium (NTCC 12697) [1] (NTCC 12697, 18 h); 601 µg/mL in the test with MRSA (NCTC 12493) [2]; 150 µg/mL with S. aureus (NCTC 10788) [3] (NCTC 10788, 18 h); 300 µg/mL in the test with E. coli (ATCC 8739) [4] (ATCC 8739, 18 h); 601 µg/mL in [5] (ATCC 43816, 18 h); 1202 µg/mL in [6] (ATCC 9027, 18 h). The MBEC is on record as over 512 µM in the test on S. aureus (NCTC 10788) [7]; 512 µM in the test on E. coli (ATCC 8739) [8]; 512/>512 µM in [9]; over 512 µM in the test with E. faecium (NTCC 12697) [10]; over 512 µM in [11]. For the same molecule, the MBIC in the test with S. aureus (NCTC 10788) [7] is recorded as 128 µM; in the test on E. coli (ATCC 8739) [8], 256 µM; in test [9] it was 512/>512 µM; in the test on E. faecium (NTCC 12697) [10] it was over 512 µM; in [11], over 512 µM. The pIC50 in the test on H838 was 4.23; in the test with HCT116, 3.22; in the test with MCF-7 it was 3.43; in the test with PC-3, 3.71; in the test with U251MG it was 3.29.

On to `CSCC[C@H](NC(=O)[C@H](Cc1ccccc1)NC(=O)CN)C(=O)N[C@@H](CC(=O)O)C(=O)N[C@H](C(=O)N[C@@H](C)C(=O)N[C@@H](CCCCN)C(=O)N[C@@H](CC(N)=O)C(=O)N[C@H](C(=O)N[C@@H](C)C(=O)N[C@@H](CCCCN)C(=O)N[C@@H](CC(N)=O)C(=O)N[C@H](C(=O)N[C@@H](C)C(=O)N[C@@H](C)C(=O)N[C@H](C(=O)N[C@@H](CC(C)C)C(=O)N[C@@H](CC(C)C)C(=O)N[C@@H](CC(=O)O)C(=O)N[C@@H](CCCCN)C(=O)N[C@@H](CC(C)C)C(=O)N[C@@H](CCCCN)C(=O)O)[C@@H](C)O)C(C)C)C(C)C)[C@@H](C)O` [R2AW(1-22)] (H-GFMDTAKNVAKNVAATLLDKLK-OH), for which the MBC in the test on E. faecium (NTCC 12697) [1] (NTCC 12697, 18 h) is over 1202 µg/mL; in the test with MRSA (NCTC 12493) [2], over 1202 µg/mL; in the test with S. aureus (NCTC 10788) [3] (NCTC 10788, 18 h), over 1202 µg/mL; in the test with E. coli (ATCC 8739) [4] (ATCC 8739, 18 h) it was over 1202 µg/mL; in test [5] (ATCC 43816, 18 h) it was over 1202 µg/mL; in [6] (ATCC 9027, 18 h), over 1202 µg/mL. Moreover, the MIC in the test with E. faecium (NTCC 12697) [1] (NTCC 12697, 18 h) was over 1203 µg/mL; with MRSA (NCTC 12493) [2] it was over 1203 µg/mL; in the test on S. aureus (NCTC 10788) [3] (NCTC 10788, 18 h), over 1203 µg/mL; in the test with E. coli (ATCC 8739) [4] (ATCC 8739, 18 h), over 1203 µg/mL; in [5] (ATCC 43816, 18 h), over 1203 µg/mL; in test [6] (ATCC 9027, 18 h), over 1203 µg/mL. Moreover, the MBEC (in the test with S. aureus (NCTC 10788) [7]; in the test on E. coli (ATCC 8739) [8]; with MRSA (NCTC 12493) [12]; in test [9]; with E. faecium (NTCC 12697) [10]; in [11]) was over 512 µM throughout. Further, the MBIC (with S. aureus (NCTC 10788) [7]; in the test with E. coli (ATCC 8739) [8]; in the test on MRSA (NCTC 12493) [12]; in test [9]; in the test with E. faecium (NTCC 12697) [10]; in [11]) was over 512 µM in each case. Also, the pIC50 with H838 is 2.85; with HCT116, 2.95; in the test with MCF-7, 3.05; in the test on PC-3, 2.83; with U251MG, 2.74.
